According to patent publication US20240058452A1, “PHARMACEUTICAL COMPOSITION CONTAINING TEMPERATURE-RESPONSIVE IONIC LIQUID” (priority 2019, published 2024):

Key:
[1] = Confirmation of temperature responsive property of ionic liquid (lower critical solution temperature by absorbance at 450 nm); type: physicochemical; settings: absorbance 450 nm, heating 20° C.→95° C. (0.5° C./minute)
Method: (§1) Whether an ionic liquid is a temperature-responsive ionic liquid having a lower critical solution temperature (LCST-type temperature-responsive ionic liquid) is determined by measuring the absorbance of the liquid at a wavelength within a visible light region while gradually increasing the temperature and observing white turbidity, in other words, an abrupt increase in absorbance at a certain temperature caused by an increase in degree of hydrophobicity. The specific procedure is as follows. First, a mixture of an ionic liquid and water is prepared and the layer state at room temperature is observed. Then, the mixture is placed in a refrigerator of 4° C., sufficiently stirred and allowed to stand still for one hour. The state of the mixture is observed. If the layer state of the ionic liquid-water mixture at room temperature is the same as the layer state at 4° C., the mixture is increased in temperature at a rate of 0.5° C./minute within the range of 20° C. to 95° C. and the absorbance of the mixture is measured at 450 nm. Based on a change in absorbance, whether the ionic liquid thus measured is LCST-type temperature-responsive ionic liquid or not can be checked.
The obtained data of absorbance change can be analyzed by differential calculus according to Tm (nucleic acid melting temperature) analysis program to obtain the lower critical solution temperature. In contrast, if the phase state of the ionic liquid-water mixture at room temperature is different from the state at 4° C., the mixture is increased in temperature at a rate of 0.5° C./minute within the range of 5° C. to 40° C. and the absorbance of the mixture is measured at 450 nm. Based on a change in absorbance, whether the ionic liquid thus measured is LCST-type temperature-responsive ionic liquid or not can be checked.
(§2) More specifically, the temperature responsive property was examined by measuring a absorbance at 450 nm at different temperatures in the following measurement conditions to obtain a change in absorbance.
(0.5° C./minute) • Analysis method: calculation by differential calculus using Tm (nucleic acid melting temperature) analysis program
(§3) (0.5° C./minute) • Analysis method: calculation by differential calculus using Tm (nucleic acid melting temperature) analysis program.
as §3

[2] = tested on: human cultured epidermal model (LabCyte EPI-MODEL12); settings: pregabalin 10 mg/mL in 100 mmol/L aqueous solution or dispersion of the ionic liquid, 300 μL donor, 37° C., control in water 252
Method: A human cultured epidermal model (LabCyte EPI-MODEL12, Japan Tissue Engineering Co., Ltd.) was used. The phase on the stratum corneum side of the model was defined as a donor phase, whereas the phase on the stratum basal side of the model was defined as a receptor phase. Whether a temperature-responsive ionic liquid enhances the permeation of pregabalin from the donor phase to the receptor phase was examined. The test was carried out in an incubator of 37° C. Pregabalin was dissolved in water, or a 100 mmol/L aqueous solution or water dispersion of a temperature-responsive ionic liquid to a concentration of 10 mg/mL. Each solution (300 μL) was added to the donor phase. Twenty-four hours later, a receptor fluid was sampled and analyzed by LC-MS/MS to obtain the amount of pregabalin permeated. The Hanks' balanced salt solution was used as the receptor fluid.

[3] = tested on: human cultured epidermal model (LabCyte EPI-MODEL12); settings: 37° C.
Method: A human cultured epidermal model (LabCyte EPI-MODEL12, Japan Tissue Engineering Co., Ltd.) was used. The phase on the stratum corneum side of the model was defined as a donor phase, whereas the phase on the stratum basal side of the model was defined as a receptor phase. […] The test was carried out in an incubator of 37° C. […] Each solution (300 μL) was added to the donor phase. […] The Hanks' balanced salt solution was used as the receptor fluid.

[4] = mixture of ionic liquid and water as obtained in the synthesis
Method: as §1, §2

[5] = cited from earlier work
[6] = ionic liquid-water sample, UV1650PC, initial waiting 10 minutes
[7] = V-750, initial waiting 5 minutes

Compound	LCST (lower critical solution temperature) [1, 6]	LCST (lower critical solution temperature) [1, 7]	compatibility with water at room temperature [4]	also measured
CCCC[P+](CCCC)(CCCC)CCCC.O=S(=O)([O-])c1ccccc1 [Reference Example 2-sample, tetrabutylphosphonium benzenesulfonate]	None	–	–	–
CCCCCCCCCC(=O)O.C[N+](C)(C)CCO [Reference Example 3-sample, cholinium decanoate, reference compound]	–	None	–	24-hour Cumulative permeation amount of pregabalin [2]: 354 μg/cm^2
C[N+](C)(C)CCO.O=C([O-])c1ccccc1O [Reference Example 5-sample, cholinium salicylate]	–	None	–	–
CCCC[P+](CCCC)(CCCC)CCCC.O=C([O-])c1ccc(C(F)(F)F)cc1O [Synthesis Example 1-sample, tetrabutylphosphonium 4-(trifluoromethyl)salicylate]	23.6 °C	–	separated from water at room temperature	24-hour Cumulative permeation amount of pregabalin [2]: 3030 μg/cm^2; 24-hour Cumulative permeation amount of lidocaine hydrochloride monohydrate ([3]; lidocaine hydrochloride monohydrate 10 mg/mL in 100 mmol/L aqueous solution or dispersion of the ionic liquid, control in water 308): 1100 μg/cm^2; 24-hour Cumulative permeation amount of tramadol hydrochloride ([3]; tramadol hydrochloride 10 mg/mL in 100 mmol/L aqueous solution or dispersion of the ionic liquid, control in water 300): 2510 μg/cm^2
CCCC[P+](CCCC)(CCCC)CCCC.O=S(=O)([O-])c1ccc(Cl)cc1 [Synthesis Example 12-sample, tetrabutylphosphonium 4-chlorobenzenesulfonate]	25.6 °C	–	separated from water at room temperature	–
CCCC[P+](CCCC)(CCCC)CCCC.Cc1ccc(S(=O)(=O)[O-])cc1 [Synthesis Example 16-sample, tetrabutylphosphonium p-toluenesulfonate]	54.6 °C	–	compatible with water at room temperature	–
CCc1cccc2c3c([nH]c12)C(CC)(CC(=O)O)OCC3 (stereo not drawn) [etodolac]	–	–	–	solubility of etodolac to water [5]: 0.11 mg/mL
diisopropanolammonium decanoate [Reference Example 4-sample]	–	None	–	–
